Read-outs that look alike come from different tables or passages of the source.
Assays:
allodynia in CCI mice = details: for effect on allodynia (hindpaw absolute threshold): male CCI mice, i.v. injection day 10 post surgery, identical ipsilateral and contralateral
Method: The current report analyzed adult (10-16 week old) male C57BL/6 mice (wildtype; FFID: IMSR_JAX:000664) purchased from Jackson Laboratories (Bar Harbor, Me., USA). Mice were maintained on a standard 12:12 light/dark cycle (lights on from 0600 hours to 1800 hours) in a temperature controlled environment (23°±2° C.) for the duration of the study. Additionally, mice were housed in groups of 4-5 mice/cage, of which all mice were routinely monitored by the animal care staff under the direction of the institutional veterinarian, fed standard rodent chow and water ad libitum, with cages and bedding changed every 7 days. All procedures were approved by the Institutional Animal Care and Use Committee (IACUC) of the University of New Mexico Health Sciences Center, conducted in accordance to the NIH Guidelines for the Care and Use of Laboratory Animals, and closely adhered to guidelines from the International Association for the Study of Pain for the use of animals in research (Foundation for Biomedical Research, The Biomedical Investigator's Handbook for Researchers Using Animal Models. Washington, D.C.: FBR, 1987. WWW: http://www.fbresearch.org/).
This study utilized a modified version of a well-established rat peripheral nerve injury model in which pathological sensitivity to light touch, clinically termed allodynia, is induced through a chronic constriction injury (CCI) (Bennett and Xie 1988). […] Under isoflurane anesthesia (1.5-2.0% volume in oxygen, 2.0 l/min), the dorsal left thigh was shaved and cleaned using 70% Ethanol (EtOH) that was air dried prior to surgery. Utilizing a small incision over the posterior thigh, remaining […] below the femur bone, from hip bone to the patella, the muscle fascia of the mouse was exposed. Using aseptic procedures, a blunt dissection was performed to carefully isolate the sciatic nerve by separating the overlying muscular fascia. Sterile plastic probes were then used to locate and lift the sciatic nerve from its pocket within the muscle tissue. Mice were then subjected to unilateral loose ligation of the sciatic nerve with three 5-0 chromic gut sutures (Ethicon; Somerville, N.J., Cat #634G) which were snugly tied around the sciatic nerve (avoiding pinching) proximal to the trifurcation with 1.5 mm spacing between sutures. Throughout the duration of the surgery, sterile 0.9% isotonic saline (Hospira; Cat #NDC 0409-4888-03) was irrigated over the sciatic nerve to prevent dehydration. Sham surgery followed the same CCI surgical procedure identically but without ligation. Upon ligation, the sciatic nerve was gently placed back into its correct anatomical position using the sterile plastic probes, and the overlying muscle fascia was stitched closed using one 4-0 sterile silk sutures (Ethicon; Somerville, N.J., Cat #83G). Wound clips (Kent Scientific Corp.; Cat #INS750344) were then utilized to seal the incision closed at which point the surgical procedure was complete. […] Body weight was monitored prior to and after surgery.
Upon a 7-14 day acclimation to the testing environment, mice were subjected to a habituation period. The habituation period included placing the mice atop a testing rack within the first 4 hours of the light cycle (lights on from 0600 hours to 1800 hours) in a sound and temperature (23°±2° C.) controlled environment, allowing full access to the plantar hindpaw. Mice were exposed to four separate habitation periods for approximately 45 min/day.

[1] = system: TLR4-mediated IL-1β release in THP-1 cells; details: for IL-1β release in the presence of LPS stimulation / basal cellular levels of IL-1β: THP-1 cells; for basal cellular levels of IL-1β: pramipexole alone, no LPS
Method: The assay was performed according to the manufacturer's instructions.

[2] = CCI mice, i.v. day 10 post surgery

CCCN[C@H]1CCc2nc(N)sc2C1 [Pramipexole, (6S)-6-N-propyl-4,5,6,7-tetrahydro-1,3-benzothiazole-2,6-diamine]
efficacy on hindpaw withdraw thresholds, hours 24-72 post-injection (allodynia in CCI mice; CCI mice, i.v. 0.5 μg): complete dissipation in the efficacy
time post-injection by which mice returned to allodynia (allodynia in CCI mice; CCI mice, i.v. 0.5 μg): ≤ 24 h
time to complete reversal from allodynia (allodynia in CCI mice; CCI mice, i.v. 0.5 μg, day 10 post-surgery): ≤ 2 h
efficacy on hindpaw withdraw thresholds, hours 24-72 post-injection (allodynia in CCI mice; CCI mice, i.v. 5 μg): complete dissipation in the efficacy
time post-injection by which mice returned to allodynia (allodynia in CCI mice; CCI mice, i.v. 5 μg): ≤ 24 h
time to complete reversal from allodynia (allodynia in CCI mice; CCI mice, i.v. 5 μg, day 10 post-surgery): ≤ 2 h
duration of efficacy (allodynia in CCI mice; [2]): up to 2 hours
time of maximal efficacy post-injection (allodynia in CCI mice; [2]): 2 h
time to complete reversal from allodynia (allodynia in CCI mice; CCI mice, i.v. day 10 post surgery, dose not given in FIG. 1 legend): ≤ 1 h
effect on allodynia (hindpaw absolute threshold) (allodynia in CCI mice): completely reversed from allodynia
effect on allodynia (hindpaw absolute threshold) (allodynia in CCI mice; listed as pramipexole): completely abolishes allodynia
IL-1β release in the presence of LPS stimulation ([1]; 5 pg pramipexole plus LPS): significantly blunts
IL-1β release in the presence of LPS stimulation ([1]; 500 pg pramipexole plus LPS): significantly blunts
basal cellular levels of IL-1β ([1]; 5 pg): does not significantly alter
basal cellular levels of IL-1β ([1]; 500 pg): does not significantly alter
TLR4-IL-1b activation pathway ([1]; cell-based assay using human THP-1 cells): inhibits the TLR4-IL-1b activation pathway
